Data published in patent EP4722208A1, “NOVEL BENZAMIDE DERIVATIVE COMPOUND AND PHARMACEUTICAL COMPOSITION COMPRISING SAME” (Samjin Pharmaceutical Co., Ltd., priority 2023, dated 2024).
pIC50: −log10 of the molar value. Where a name gives a salt, the structure may show the parent alone.

Biological target: T1, Recombinant NAMPT protein (Homo sapiens, UniProt P43490)
T1 construct: purchased BPS bioscience # 7176-1
Test: NAMPT enzyme inhibition assay (BPS bioscience NAMPT Inhibitor Screening Assay Kit, fluorescence)
Type: biochemical
Details: 30 min pre-incubation, 2 h at 30°C, compound 1000 nM to 3 nM, n=2
Description: The NAMPT enzyme activity inhibition ability of the compound of the present invention was evaluated using the NAMPT Inhibitor Screening Assay Kit (# 7176-1) from BPS bioscience. Recombinant NAMPT protein was added to each well of a black 96-well plate, and dilution buffer was added to a blank well instead of NAMPT protein. A 5 x concentrated compound solution was added and pre-incubated at room temperature (approximately 22°C) for 30 minutes before the start of the reaction so that the compound and protein might bind before the enzyme reaction. At this time, the concentration of NAMPT protein was adjusted and used according to the enzyme activity of each protein lot within the final concentration range of 4-10 ng/µl, and the test compound was serially diluted at a ratio of 1:3 from 1000 nM to 3 nM, and experiments were conducted with n=2 for about seven concentrations. A 2 x concentrated test buffer containing ATP (final concentration of 20 µM), nicotinamide (final concentration of 20 µM), phosphoribosyl pyrophosphate (PRPP, final concentration of 40 µM), and ethanol (final concentration of 1.5%) was added, and the plate was incubated at 30°C for two hours, after which the fluorescence of a resulting reaction product was measured with excitation of 340 nm and emission of 460 nm. The NAMPT enzyme activity (%) was calculated by subtracting the measurement value of the blank well without NAMPT protein from the measurement value of all wells, and then taking the measurement value of the control well without the compound as 100%.

T1 sequence (P43490 whole entry): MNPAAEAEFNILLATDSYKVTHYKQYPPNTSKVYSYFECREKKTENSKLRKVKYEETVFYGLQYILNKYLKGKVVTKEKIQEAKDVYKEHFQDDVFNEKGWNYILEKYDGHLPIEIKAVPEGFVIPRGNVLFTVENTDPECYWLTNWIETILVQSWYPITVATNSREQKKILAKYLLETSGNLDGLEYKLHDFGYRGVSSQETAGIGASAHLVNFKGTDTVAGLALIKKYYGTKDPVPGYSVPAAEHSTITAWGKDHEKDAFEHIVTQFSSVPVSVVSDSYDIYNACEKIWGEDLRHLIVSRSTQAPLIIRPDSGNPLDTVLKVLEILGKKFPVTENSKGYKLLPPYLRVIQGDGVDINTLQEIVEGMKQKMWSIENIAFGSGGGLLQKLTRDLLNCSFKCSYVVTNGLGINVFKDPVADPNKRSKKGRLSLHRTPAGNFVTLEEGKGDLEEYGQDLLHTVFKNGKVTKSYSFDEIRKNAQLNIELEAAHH

pIC50 | SMILES
> 6.30 | Nc1ccc(-n2ccc(CS(=O)(=O)c3ccc(C(=O)NCc4ccn5ccnc5c4)cc3C#Cc3ccc(F)cc3)n2)cc1 [compound 233, 4-(((1-(4-aminophenyl)-1H-pyrazol-3-yl)methyl)sulfonyl)-3-((4-fluorophenyl)ethynyl)-N-(imidazo[1,2-a]pyridin-7-ylmethyl)benzamide]
≤ 6.00 | Cc1cccc(CS(=O)(=O)c2ccc(C(=O)NCCCc3cn[nH]c3)cc2C#Cc2ccc(F)cc2)c1C [compound 5, N-(3-(1H-pyrazol-4-yl)propyl)-4-((2,3-dimethylbenzyl)sulfonyl)-3-((4-fluorophenyl)ethynyl)benzamide]
> 6.30 | Cn1ccc(CNS(=O)(=O)c2ccc(C(=O)NCc3ccn4ccnc4c3)cc2C#Cc2ccc(F)cc2)n1 [compound 115, 3-((4-fluorophenyl)ethynyl)-N-(imidazo[1,2-a]pyridin-7-ylmethyl)-4-(N-((1-methyl-1H-pyrazol-3-yl)methyl)sulfamoyl)benzamide]
≤ 6.00 | Cn1ccc(CS(=O)(=O)c2ccc(C(=O)NCc3ccn4ccnc4c3)cc2C#Cc2ccc(C(=O)NCCN3CCNCC3)cc2)n1 [compound 193, N-(imidazo[1,2-a]pyridin-7-ylmethyl)-4-(((1-methyl-1H-pyrazol-3-yl)methyl)sulfonyl)-3-((4-((2-(piperazin-1-yl)ethyl)carbamoyl)phenyl)ethynyl)benzamide]
> 6.30 | COc1cc(C#Cc2cc(C(=O)NCCCc3cn[nH]c3)ccc2S(=O)(=O)Cc2ccn(C)n2)ccc1C [compound 235, N-(3-(1H-pyrazol-4-yl)propyl)-3-((3-methoxy-4-methylphenyl)ethynyl)-4-(((1-methyl-1H-pyrazol-3-yl)methyl)sulfonyl)benzamide]
≤ 6.00 | Cn1ccc(CS(=O)(=O)c2ccc(C(=O)NCCc3ccc(N)nc3)cc2C#Cc2ccc(F)cc2)n1 [compound 8, N-(2-(6-aminopyridin-3-yl)ethyl)-3-((4-fluorophenyl)ethynyl)-4-(((1-methyl-1H-pyrazol-3-yl)methyl)sulfonyl)benzamide]
6.00 to 6.30 | Cn1ccc(CS(=O)(=O)c2ccc(C(=O)NCc3ccn4ccnc4c3)cc2C#Cc2ccc(C(=O)NCCN3CCCCC3)cc2)n1 [compound 242, N-(imidazo[1,2-a]pyridin-7-ylmethyl)-4-(((1-methyl-1H-pyrazol-3-yl)methyl)sulfonyl)-3-((4-((2-(piperidin-1-yl)ethyl)carbamoyl)phenyl)ethynyl)benzamide]
> 6.30 | Cn1ccc(CS(=O)(=O)c2ccc(C(=O)NCc3ccn4ccnc4c3)cc2C#Cc2ccc3c(c2)CCNC3)n1 [compound 231, N-(imidazo[1,2-a]pyridin-7-ylmethyl)-4-(((1-methyl-1H-pyrazol-3-yl)methyl)sulfonyl)-3-((1,2,3,4-tetrahydroisoquinolin-6-yl)ethynyl)benzamide]
> 6.30 | Cn1ccc(CS(=O)(=O)c2ccc(C(=O)NCCCc3cn[nH]c3)cc2C#Cc2ccncc2)n1 [compound 237, N-(3-(1H-pyrazol-4-yl)propyl)-4-(((1-methyl-1H-pyrazol-3-yl)methyl)sulfonyl)-3-(pyridin-4-ylethynyl)benzamide]
> 6.30 | Cn1ccc(CS(=O)(=O)c2ccc(C(=O)NCCc3c[nH]c4ccncc34)cc2C#Cc2ccc(F)cc2)n1 [compound 3, N-(2-(1H-pyrrolo[3,2-c]pyridin-3-yl)ethyl)-3-((4-fluorophenyl)ethynyl)-4-(((1-methyl-1H-pyrazol-3-yl)methyl)sulfonyl)benzamide]
≤ 6.00 | Cn1ccc(CS(=O)(=O)c2ccc(C(=O)NCCc3ccc([N+](=O)[O-])nc3)cc2C#Cc2ccc(F)cc2)n1 [compound 7, 3-((4-fluorophenyl)ethynyl)-4-(((1-methyl-1H-pyrazol-3-yl)methyl)sulfonyl)-N-(2-(6-nitropyridin-3-yl)ethyl)benzamide]
> 6.30 | Cn1ccc(CS(=O)(=O)c2ccc(C(=O)NCc3ccn4ccnc4c3)cc2C#Cc2ccc(N)nc2)n1 [compound 243, 3-((6-aminopyridin-3-yl)ethynyl)-N-(imidazo[1,2-a]pyridin-7-ylmethyl)-4-(((1-methyl-1H-pyrazol-3-yl)methyl)sulfonyl)benzamide]
6.00 to 6.30 | O=C(NCCCc1cn[nH]c1)c1ccc(S(=O)(=O)Cc2ccn(-c3ccc(C(F)(F)F)cc3)n2)c(C#Cc2ccc(F)cc2)c1 [compound 4, N-(3-(1H-pyrazol-4-yl)propyl)-3-((4-fluorophenyl)ethynyl)-4-(((1-(4-(trifluoromethyl)phenyl)-1H-pyrazol-3-yl)methyl)sulfonyl)benzamide]
≤ 6.00 | Cn1ccc(CS(=O)(=O)c2ccc(C(=O)NCCCc3cn[nH]c3)cc2C#Cc2ccc(OC(F)(F)F)cc2)n1 [compound 236, N-(3-(1H-pyrazol-4-yl)propyl)-4-(((1-methyl-1H-pyrazol-3-yl)methyl)sulfonyl)-3-((4-(trifluoromethoxy)phenyl)ethynyl)benzamide]
> 6.30 | Cn1ccc(CS(=O)(=O)c2ccc(C(=O)NCCCc3cn[nH]c3)cc2C#Cc2ccc(C3CCNCC3)cc2)n1 [compound 245, N-(3-(1H-pyrazol-4-yl)propyl)-4-(((1-methyl-1H-pyrazol-3-yl)methyl)sulfonyl)-3-((4-(piperidin-4-yl)phenyl)ethynyl)benzamide hydrochloride]
6.00 to 6.30 | O=C(NCCCc1cn[nH]c1)c1ccc(S(=O)(=O)Cc2cccc(C(F)(F)F)c2)c(C#Cc2ccc(F)cc2)c1 [compound 9, N-(3-(1H-pyrazol-4-yl)propyl)-3-((4-fluorophenyl)ethynyl)-4-((3-(trifluoromethyl)benzyl)sulfonyl)benzamide]
> 6.30 | Cn1ccc(CS(=O)(=O)c2ccc(C(=O)NCc3ccc4nccn4c3)cc2C#Cc2ccc(N)cc2)n1 [compound 240, 3-((4-aminophenyl)ethynyl)-N-(imidazo[1,2-a]pyridin-6-ylmethyl)-4-(((1-methyl-1H-pyrazol-3-yl)methyl)sulfonyl)benzamide]
≤ 6.00 | CNS(=O)(=O)c1ccc(C(=O)NCCCc2cn[nH]c2)cc1C#Cc1ccc(F)cc1 [compound 6, N-(3-(1H-pyrazol-4-yl)propyl)-3-((4-fluorophenyl)ethynyl)-4-(N-methylsulfamoyl)benzamide]
≤ 6.00 | O=C(NCc1ccn2ccnc2c1)c1ccc(S(=O)(=O)Cc2ccn(C3CCNCC3)n2)c(C#Cc2ccc(F)cc2)c1 [compound 122, 3-((4-fluorophenyl)ethynyl)-N-(imidazo[1,2-a]pyridin-7-ylmethyl)-4-(((1-(piperidin-4-yl)-1H-pyrazol-3-yl)methyl)sulfonyl)benzamide]
≤ 6.00 | CN(C)c1ccc(C#Cc2cc(C(=O)NCCCc3cn[nH]c3)ccc2S(=O)(=O)Cc2ccn(C)n2)cc1 [compound 244, N-(3-(1H-pyrazol-4-yl)propyl)-3-((4-(dimethylamino)phenyl)ethynyl)-4-(((1-methyl-1H-pyrazol-3-yl)methyl)sulfonyl)benzamide]

SMILES | pIC50
Nc1ccc(CS(=O)(=O)c2ccc(C(=O)NCc3ccn4ccnc4c3)cc2C#Cc2ccc(F)cc2)cc1 [compound 148, 4-((4-aminobenzyl)sulfonyl)-3-((4-fluorophenyl)ethynyl)-N-(imidazo[1,2-a]pyridin-7-ylmethyl)benzamide] | > 6.30
Cn1ccc(CS(=O)(=O)c2ccc(C(=O)NCc3ccn4ccnc4c3)cc2C#Cc2ccc(N)c(F)c2)n1 [compound 241, 3-((4-amino-3-fluorophenyl)ethynyl)-N-(imidazo[1,2-a]pyridin-7-ylmethyl)-4-(((1-methyl-1H-pyrazol-3-yl)methyl)sulfonyl)benzamide] | > 6.30
Cn1ccc(CS(=O)(=O)c2ccc(C(=O)NCc3ccn4ccnc4c3)cc2C#Cc2cccc(CN)c2)n1 [compound 232, 3-((3-(aminomethyl)phenyl)ethynyl)-N-(imidazo[1,2-a]pyridin-7-ylmethyl)-4-(((1-methyl-1H-pyrazol-3-yl)methyl)sulfonyl)benzamide] | > 6.30
Cn1ccc(CS(=O)(=O)c2ccc(C(=O)NCc3cnc4nccn4c3)cc2C#Cc2ccc(F)cc2)n1 [compound 238, 3-((4-fluorophenyl)ethynyl)-N-(imidazo[1,2-a]pyrimidin-6-ylmethyl)-4-(((1-methyl-1H-pyrazol-3-yl)methyl)sulfonyl)benzamide] | > 6.30
Nc1cccc(CS(=O)(=O)c2ccc(C(=O)NCc3ccn4ccnc4c3)cc2C#Cc2ccc(F)cc2)c1 [compound 147] | > 6.30

Test system: HCT116 colorectal cancer cell lines
Test: Tumor cytotoxicity assay (MTT)
Type: cell-based
Details: Homo sapiens, HCT-116, HCT116 cells, 72 hours treatment, 0.1 nM to 1000 nM
Description: The anticancer efficacy of the compound of the present invention was evaluated using the MTT analysis method in HCT116 colorectal cancer cell lines. The cells were incubated using DMEM medium containing 10% FBS. The cells were distributed in a 96-well plate at a density of 2,500 cells per well, the HCT116 cells were incubated for 24 hours, and then treated with a drug using a serum free DMEM. First, a compound was prepared in 100% dimethyl sulfoxide (DMSO) at a concentration of 0.02 µM to 200 µM, diluted in the culture medium so that the final concentration of DMSO might reach 0.5%, and treated with the drug so that the final concentration of the compound might range from 0.1 nM to 1000 nM. After that, they were further incubated for 72 hours at 37°C and CO2 5% and treated with MTT (Sigma-Aldrich, M2128) to confirm cytotoxicity. Formazan produced from reduction by enzymes in the mitochondria of living cells was measured using Spark® Multimode Microplate Reader TECAN equipment. A cell viability (%) was relatively determined by subtracting a reference 650 nm optical density (O.D.) from 570 nm O.D., in which the 0.5% DMSO-treated control was set as a standard of 100%. […]

SMILES | CC50
Nc1ccc(CS(=O)(=O)c2ccc(C(=O)NCc3ccn4ccnc4c3)cc2C#Cc2ccc(F)cc2)cc1 [compound 148, 4-((4-aminobenzyl)sulfonyl)-3-((4-fluorophenyl)ethynyl)-N-(imidazo[1,2-a]pyridin-7-ylmethyl)benzamide] | 0.1 to 1 µM
Cn1ccc(CS(=O)(=O)c2ccc(C(=O)NCc3ccn4ccnc4c3)cc2C#Cc2ccc(N)c(F)c2)n1 [compound 241, 3-((4-amino-3-fluorophenyl)ethynyl)-N-(imidazo[1,2-a]pyridin-7-ylmethyl)-4-(((1-methyl-1H-pyrazol-3-yl)methyl)sulfonyl)benzamide] | ≤ 0.03 µM
Cn1ccc(CS(=O)(=O)c2ccc(C(=O)NCc3ccn4ccnc4c3)cc2C#Cc2cccc(CN)c2)n1 [compound 232, 3-((3-(aminomethyl)phenyl)ethynyl)-N-(imidazo[1,2-a]pyridin-7-ylmethyl)-4-(((1-methyl-1H-pyrazol-3-yl)methyl)sulfonyl)benzamide] | ≤ 0.03 µM
Cn1ccc(CS(=O)(=O)c2ccc(C(=O)NCc3cnc4nccn4c3)cc2C#Cc2ccc(F)cc2)n1 [compound 238, 3-((4-fluorophenyl)ethynyl)-N-(imidazo[1,2-a]pyrimidin-6-ylmethyl)-4-(((1-methyl-1H-pyrazol-3-yl)methyl)sulfonyl)benzamide] | 0.1 to 1 µM
